Source: paper PMC10974018, “The Development and Characterization of Novel Ionic Liquids Based on Mono- and Dicarboxylates with Meglumine for Drug Solubilizers and Skin Permeation Enhancers” (Pharmaceutics, 2024)

Key:
[1] = cited from earlier work
[2] = Solubility capability of drug-in-IL (organic acid/MGM ionic liquids), confirmed by PXRD; format: physicochemical; conditions: for upper limit of drug dissolution in IL: in GA-MGM 1:1, PXRD
Description: […] Next, 1, 10, 20… w/w% of each drug and water and ethanol as the solvent was added to the MGM and organic acid solution, and then the preparation was sonicated to be completely dissolved. The resulting solution was evaporated using a thermostat at 65 °C and then vacuum-dried at 40 °C for 24 h.
The solubilization power of ILs is attributed to a range of interactions, such as ionic, van der Waals, π–π, and hydrogen bonding. […] To determine the solubility capability of the ILs, drug-in-IL complexes were prepared. Subsequently, these complexes were analyzed via PXRD to confirm dissolution. PXRD is a technique used to validate the crystalline structure of a drug or excipients in a preparation. The absence of a drug’s crystal form in PXRD indicates the complete solubilization of the drug in the IL.

[3] = as above; format: physicochemical; conditions: for upper limit of drug dissolution in IL: PXRD
[4] = cited from earlier work; remark: listed apart in the source

Row | Compound | pKa [1] | Log P [4] | further results
1 | C[C@H](CS)C(=O)N1CCC[C@H]1C(=O)O [Captopril (CPP), Captopril] | 3.64 |  | upper limit of drug dissolution in IL [2]: ≥ 20%; upper limit of drug dissolution in IL ([3]; in AA-MGM 1:2): greater than 10%; upper limit of drug dissolution in IL ([3]; in TA-MGM 1:2): 80%
2 | COc1cc(/C=C/C(=O)O)ccc1O [Ferulic acid (FA), Ferulic acid] | 4.58 |  | 
3 | COc1ccccc1OCCNCC(O)COc1cccc2[nH]c3ccccc3c12 (centres unmarked) [Carvedilol (CVD), Carvedilol] |  | 4.19 | 
4 | O=C(O)CCCCCCCC(=O)O [Azelaic acid (AA), Azelaic acid] | 4.55 | 1.57 | 
5 | C[C@@H]1O[C@@H](OC[C@H]2O[C@@H](Oc3c(-c4ccc(O)c(O)c4)oc4cc(O)cc(O)c4c3=O)[C@H](O)[C@@H](O)[C@@H]2O)[C@H](O)[C@H](O)[C@H]1O [Rutin] | 6.43 | −1.33 | upper limit of drug dissolution in IL [2]: ≥ 20%; upper limit of drug dissolution in IL ([3]; in AA-MGM 1:2): greater than 10%
6 | O=C(O)C(O)C(O)C(=O)O (centres unmarked) [Tartaric acid (TA), Tartaric acid] |  | −1.8 | 
7 | CC(C(=O)O)c1ccc(-c2ccccc2)c(F)c1 (centres unmarked) [Flurbiprofen (FRP), Flurbiprofen] | 3.78 |  | upper limit of drug dissolution in IL [2]: ≥ 20%; upper limit of drug dissolution in IL ([3]; in AA-MGM 1:2): greater than 10%; upper limit of drug dissolution in IL ([3]; in TA-MGM 1:2): 10%
8 | COC1=C(OC)C(=O)C(C/C=C(\C)CC/C=C(\C)CC/C=C(\C)CC/C=C(\C)CC/C=C(\C)CC/C=C(\C)CC/C=C(\C)CC/C=C(\C)CC/C=C(\C)CCC=C(C)C)=C(C)C1=O [Coenzyme Q10 (CoQ10), Coenzyme Q10] | 10.9 | 9.94 | upper limit of drug dissolution in IL ([3]; in AA-MGM 1:2): greater than 10%
9 | Curcumin [Curcumin (CCM)] | 8.09 |  | 
10 | CC1COc2c(N3CCN(C)CC3)c(F)cc3c(=O)c(C(=O)O)cn1c23 (centres unmarked) [Ofloxacin (OFLX), Ofloxacin] |  | −0.48 | pKa1 [1]: 5.97; pKa2 [1]: 9.28
11 | Minoxidil [Minoxidil (MXD)] | 4.61 | 1.24 | 
12 | Oc1ncnc2[nH]ncc12 [Allopurinol (ALP), Allopurinol] | 9.34 | −1.80 | 
13 | O=[N+]([O-])O[C@@H]1CO[C@H]2[C@@H]1OC[C@@H]2O [Isosorbide mononitrate (ISMN), Isosorbide mononitrate] |  | −0.15 | upper limit of drug dissolution in IL [2]: ≥ 20%; dissolution of drug in IL by PXRD (drug-derived crystal peaks) ([3]; 5% and 10% drug in TA-MGM 1:2): cannot be completely dissolved; upper limit of drug dissolution in IL ([3]; in AA-MGM 1:2): greater than 10%
14 | CCOc1ccccc1C(N)=O [Ethenzamide (ETZ), Ethenzamide] | 13.7 | 1.02 | 
15 | CC(C)N(CCC(C(N)=O)(c1ccccc1)c1ccccn1)C(C)C (centres unmarked) [Disopyramide (DPA), Disopyramide] |  |  | solubility in ILs ([2]; all ILs (TA/MGM, AA/MGM, GA/MGM, CPA/MGM)): 100%
16 | CC(C)=CCC/C(C)=C/C(=O)O [Geranic acid (GA), Geranic acid] | 5.26 | 3.07 | 
17 | CNC[C@H](O)[C@@H](O)[C@H](O)[C@H](O)CO [Meglumine (MGM), Meglumine] | 9.52 |  | 
